{
  "source": "BigSolDB 2.1",
  "data": [
    {"smiles": "O=C(O)CCC(=O)C(=O)O", "values": [
      {"measurement": "solubility (mole fraction)", "setting": "in ethyl acetate, 278.15 K", "value": 0.0358},
      {"measurement": "solubility (mole fraction)", "setting": "in ethyl acetate, 280.15 K", "value": 0.0374},
      {"measurement": "solubility (mole fraction)", "setting": "in ethyl acetate, 282.15 K", "value": 0.0392},
      {"measurement": "solubility (mole fraction)", "setting": "in ethyl acetate, 284.15 K", "value": 0.0418},
      {"measurement": "solubility (mole fraction)", "setting": "in ethyl acetate, 286.15 K", "value": 0.0455},
      {"measurement": "solubility (mole fraction)", "setting": "in ethyl acetate, 288.15 K", "value": 0.0494},
      {"measurement": "solubility (mole fraction)", "setting": "in ethyl acetate, 293.15 K", "value": 0.0603},
      {"measurement": "solubility (mole fraction)", "setting": "in n-butyl acetate, 278.15 K", "value": 0.0261},
      {"measurement": "solubility (mole fraction)", "setting": "in n-butyl acetate, 280.15 K", "value": 0.0284},
      {"measurement": "solubility (mole fraction)", "setting": "in n-butyl acetate, 282.15 K", "value": 0.0303},
      {"measurement": "solubility (mole fraction)", "setting": "in n-butyl acetate, 284.15 K", "value": 0.0337},
      {"measurement": "solubility (mole fraction)", "setting": "in n-butyl acetate, 286.15 K", "value": 0.0363},
      {"measurement": "solubility (mole fraction)", "setting": "in n-butyl acetate, 288.15 K", "value": 0.0391},
      {"measurement": "solubility (mole fraction)", "setting": "in n-butyl acetate, 293.15 K", "value": 0.0466},
      {"measurement": "solubility (mole fraction)", "setting": "in water, 278.15 K", "value": 0.11},
      {"measurement": "solubility (mole fraction)", "setting": "in water, 280.15 K", "value": 0.114},
      {"measurement": "solubility (mole fraction)", "setting": "in water, 282.15 K", "value": 0.12},
      {"measurement": "solubility (mole fraction)", "setting": "in water, 284.15 K", "value": 0.128},
      {"measurement": "solubility (mole fraction)", "setting": "in water, 286.15 K", "value": 0.135},
      {"measurement": "solubility (mole fraction)", "setting": "in water, 288.15 K", "value": 0.146},
      {"measurement": "solubility (mole fraction)", "setting": "in water, 293.15 K", "value": 0.168}
    ]}
  ]
}
